Measured values reported in article PMC7247561, “Characterization of ABC Transporters in EpiAirway™, a Cellular Model of Normal Human Bronchial Epithelium” (International Journal of Molecular Sciences, 2020).
Read-outs that look alike come from different tables or passages of the source.

Columns and labels:
BCRP [1] = biological target: T1, BCRP (Homo sapiens, UniProt Q9UNQ0)
T1 sequence (Q9UNQ0 1-655): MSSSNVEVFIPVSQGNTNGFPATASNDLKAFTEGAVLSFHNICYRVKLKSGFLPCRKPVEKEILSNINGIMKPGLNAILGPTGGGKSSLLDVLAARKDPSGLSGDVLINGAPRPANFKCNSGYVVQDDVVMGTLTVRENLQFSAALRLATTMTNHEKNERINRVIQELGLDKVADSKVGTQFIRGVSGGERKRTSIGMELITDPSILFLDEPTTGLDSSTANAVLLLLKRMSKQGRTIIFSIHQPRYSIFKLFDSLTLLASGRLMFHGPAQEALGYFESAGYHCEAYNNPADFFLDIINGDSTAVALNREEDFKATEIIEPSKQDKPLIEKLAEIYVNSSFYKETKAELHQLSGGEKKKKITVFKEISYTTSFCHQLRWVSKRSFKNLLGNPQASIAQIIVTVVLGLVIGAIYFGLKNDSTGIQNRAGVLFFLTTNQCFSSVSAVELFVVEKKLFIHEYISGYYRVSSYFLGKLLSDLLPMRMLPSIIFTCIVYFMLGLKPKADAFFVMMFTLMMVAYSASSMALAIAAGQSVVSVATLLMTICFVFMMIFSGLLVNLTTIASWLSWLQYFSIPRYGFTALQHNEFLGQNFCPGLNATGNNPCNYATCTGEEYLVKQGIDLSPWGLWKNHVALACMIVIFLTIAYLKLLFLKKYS
Description: (§2) The activity of ABC transporters was assessed by measuring the apical-to-basolateral (AB) and basolateral-to-apical (BA) fluxes of specific substrates. To this aim, cell monolayers were washed twice in HBSS and equilibrated for 30 min in the same solution (pH 7.4, 37 °C). […] Aliquots of the solution in the receiver chamber were collected after 0 min, 30 min, 60 min and 120 min and replaced with fresh HBSS. The fluxes were determined by measuring fluorescence with an EnSpire® Multimode Plate Reader (Perkin Elmer), or radioactivity with MicroBeta^2 liquid scintillation spectrometer. Data obtained were employed to calculate the apparent permeability coefficient (Papp). The integrity of cell monolayers, verified by measuring TEER before and after the experiment, was not modified by the experimental procedures.
(§3) Efflux ratio (ER) was calculated as the ratio between Papp measured for BA and AB fluxes, while uptake ratio (UR) was calculated as the ratio between Papp measured for AB and BA fluxes.

BCRP [2] = biological target: T1, BCRP; assay: BCRP activity, bidirectional transport of 3H-mitoxantrone in EpiAirway; conditions: 21 d at ALI, 10 µM Febuxostat
Description: as §2, §3

MDR1 [3] = assay: MDR1 activity, bidirectional transport of Rhodamine 123 in EpiAirway; assay type: in vitro ADME, human
MDR1 [4] = biological target: T2, MDR1 (Homo sapiens, UniProt P08183); assay: MDR1 activity, bidirectional transport of Rhodamine 123 in Calu-3; assay type: in vitro ADME; conditions: 1 µM Rhodamine 123
T2 construct: MDR1 in Calu-3 cultures is expressed and operative on the apical membrane of the cells only after 21 d at ALI; endogenous in cells; host or cells: Calu-3 cells at air-liquid interface, 8 d or 21 d
Description: as §2, §3

MDR1 (P-glycoprotein) = biological target: T3, MDR1 (P-glycoprotein) (Homo sapiens, UniProt P08183); assay: as above; assay type: in vitro ADME; conditions: human, Calu-3, 21 d at ALI
T3 construct: MDR1 in Calu-3 cultures is expressed and operative on the apical membrane of the cells only after 21 d at ALI; endogenous in cells; host or cells: Calu-3 cells at air-liquid interface, 8 d or 21 d
Description: as §2, §3

EpiAirway™ = assay type: in vitro ADME, human
Description: (§1) In parallel, the paracellular and transcellular permeability of cultures to solutes was assessed by monitoring the apical-to-basolateral fluxes of ^14C-mannitol and ^3H-propranolol, respectively. In detail, cell monolayers were washed and incubated for 30 min in Hank’s Balanced Salt Solution (HBSS, pH 7.4, 37 °C); HBSS containing ^14C-mannitol (1 µCi/mL, corresponding to 20 µM) or ^3H-propranolol (3 µCi/mL; 10 µM) was then added to the apical side (donor chamber) of the monolayers.

Calu-3 cells = assay: Paracellular and transcellular permeability (apical-to-basolateral Papp) in Calu-3; assay type: in vitro ADME, human; conditions: Calu-3, after 21 d at ALI, AB flux, 20 µM 14C-mannitol
Description: as §1

T3 sequence (P08183 whole entry): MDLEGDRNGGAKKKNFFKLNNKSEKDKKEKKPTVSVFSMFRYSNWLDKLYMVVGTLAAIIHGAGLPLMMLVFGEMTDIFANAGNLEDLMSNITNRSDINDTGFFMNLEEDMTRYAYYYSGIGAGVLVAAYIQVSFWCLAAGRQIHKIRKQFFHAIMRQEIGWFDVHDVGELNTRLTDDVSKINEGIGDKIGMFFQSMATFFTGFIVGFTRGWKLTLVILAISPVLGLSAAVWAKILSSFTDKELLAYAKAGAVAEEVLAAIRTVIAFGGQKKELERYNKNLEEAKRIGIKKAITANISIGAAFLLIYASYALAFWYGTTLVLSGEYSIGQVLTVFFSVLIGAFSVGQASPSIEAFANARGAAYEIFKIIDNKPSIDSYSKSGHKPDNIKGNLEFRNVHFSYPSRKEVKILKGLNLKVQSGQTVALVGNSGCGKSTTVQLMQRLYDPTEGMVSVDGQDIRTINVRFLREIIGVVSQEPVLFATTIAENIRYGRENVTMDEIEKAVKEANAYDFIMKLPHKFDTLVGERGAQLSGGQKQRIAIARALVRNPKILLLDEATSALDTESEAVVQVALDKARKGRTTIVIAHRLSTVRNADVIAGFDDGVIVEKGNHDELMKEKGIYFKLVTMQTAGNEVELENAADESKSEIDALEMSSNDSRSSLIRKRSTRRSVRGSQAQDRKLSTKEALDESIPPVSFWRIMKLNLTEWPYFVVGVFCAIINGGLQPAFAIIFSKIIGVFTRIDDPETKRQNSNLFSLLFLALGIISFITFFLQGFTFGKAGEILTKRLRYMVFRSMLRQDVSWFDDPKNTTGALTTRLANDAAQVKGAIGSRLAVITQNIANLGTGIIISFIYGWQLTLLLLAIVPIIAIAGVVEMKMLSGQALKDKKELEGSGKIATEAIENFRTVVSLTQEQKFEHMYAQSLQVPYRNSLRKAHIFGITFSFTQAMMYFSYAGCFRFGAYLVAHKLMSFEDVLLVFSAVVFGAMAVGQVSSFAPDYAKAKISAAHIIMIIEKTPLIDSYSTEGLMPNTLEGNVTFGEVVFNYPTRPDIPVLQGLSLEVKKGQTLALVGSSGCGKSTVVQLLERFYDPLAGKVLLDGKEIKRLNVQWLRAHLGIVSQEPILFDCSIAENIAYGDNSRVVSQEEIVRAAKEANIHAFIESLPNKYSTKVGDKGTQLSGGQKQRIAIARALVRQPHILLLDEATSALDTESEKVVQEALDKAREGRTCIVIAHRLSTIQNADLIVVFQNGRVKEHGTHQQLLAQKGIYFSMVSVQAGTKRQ
T2 sequence (P08183 whole entry): as above

Cc1nc(-c2ccc(OCC(C)C)c(C#N)c2)sc1C(=O)O [Febuxostat]
effect of inhibitor on Papp for AB flux of 3H-mitoxantrone (BCRP [1]): modest but significant decrease
effect of inhibitor on BA flux of 3H-mitoxantrone (BCRP [2]): remained almost unaffected
effect of inhibitor on uptake ratio (UR) of 3H-mitoxantrone (BCRP [2]): slight decrease

C/C=C/C[C@@H](C)C(=O)[C@H]1C(=O)N[C@@H](C(C)C)C(=O)N(C)CC(=O)N(C)[C@@H](CC(C)C)C(=O)N[C@@H](C(C)C)C(=O)N(C)[C@@H](CC(C)C)C(=O)N[C@@H](C)C(=O)N[C@H](C)C(=O)N(C)[C@@H](CC(C)C)C(=O)N(C)[C@@H](CC(C)C)C(=O)N(C)[C@@H](C(C)C)C(=O)N1C [PSC833]
effect of inhibitor on Rhodamine 123 fluxes (MDR1 [3]; 8 d and 21 d at ALI, 10 µM PSC833): lack of inhibition

COC(=O)c1ccccc1-c1c2ccc(=N)cc-2oc2cc(N)ccc12 [Rhodamine 123]
Papp for AB vs BA fluxes (MDR1 [4]; Calu-3, 8 d at ALI): comparable
Papp for BA transport vs AB flux (MDR1 [4]; Calu-3, 21 d at ALI): hugely higher than that of AB flux
efflux ratio at 120 min, 1 µM (MDR1 (P-glycoprotein); pH 7.4, probe Rhodamine 123, with PSC833 10 µM, 1 µM Rhodamine 123, + 10 µM PSC833, read-out: efflux ratio (ER) in the presence of the inhibitor): 2.8
efflux ratio at 120 min, 1 µM (MDR1 (P-glycoprotein); pH 7.4, probe Rhodamine 123, 1 µM Rhodamine 123, control (no inhibitor), read-out: efflux ratio (ER)): 7
AB vs BA fluxes (MDR1 [3]; 8 d and 21 d at ALI, 1 µM Rhodamine 123): no differences
values of Papp and ER (MDR1 [3]; Rhodamine 123 fluxes): very low

OC[C@@H](O)[C@@H](O)[C@H](O)[C@H](O)CO [mannitol]
mannitol permeability (Papp), 8 d vs 21 d of culture (EpiAirway™): no difference
Papp for mannitol, 21 d vs 8 d of culture (Calu-3 cells): decreased

CC(C)NCC(O)COc1cccc2ccccc12 (stereo not shown) [propranolol]
propranolol permeability (Papp), EpiAirway vs Calu-3 (EpiAirway™; human, 120 min, 10 µM, pH 7.4): slightly higher than that of Calu-3 cells
